From US20190358264A1, “METHODS OF TREATING DISEASES ASSOCIATED WITH ILC2 CELLS” (Limm Therapeutics, SA, priority 2016, published 2019)

What was measured:
intestine ILC2 = experiment: Ki67 expression in intestine ILC2 after in vivo administration of NmU23; set-up: species or system mouse; conditions: NmU23 4 g/day during 2 days (FIG. 10b)
Description: FIGS. 10a-10d: FIG. 10a, Ki67 expression in intestinal ILC2s after an overnight in vitro stimulation with NmU23 alone (100 ng/mL, Phoenix Pharmaceutical) or NmU23 together with the survival cytokines Interleukin (IL)-2 and/or IL-7 (10 ng/mL). FIG. 10b, Ki67 expression in intestine ILC2 after in vivo administration of NmU23 (4 g/day during 2 days). n=5. FIG. 10c, ILC2-derived type 2 cytokines (IL-5, IL-13 and Amphiregulin (Areg)) in sorted intestine ILC2 after an overnight stimulation with NmU23, mouse recombinant IL-25 or IL-33 (R&D) (10, 50 and 100 ng/mL). Negative control: unstimulated ILC2, Positive control: ILC2 activated with phorbol 12-myristate 13-acetate (PMA, 50 ng/ml) plus ionomycin (500 ng/ml). n=3. FIG. 10d, Dot plots representative of the cytokine production with increasing dose of NmU23, rIL-25 and rIL-33. *P<0.05; **P<0.01; ***P<0.001; ****P<0.0001; ns not significant.

ILC2s = experiment: In vivo administration of NmU23, ILC2- and T cell-derived type 2 cytokines; set-up: species or system mouse; conditions: single dose NmU23 20 μg intraperitoneal, analyzed after 8 hours, vs PBS
Description: For in vitro experiments, purified lung and small intestine lamina propria ILC2s were FBS starved for 2 hours prior to stimulation and cultured in complete RPMI (supplemented with 10% foetal bovine serum (FBS), 1% hepes, sodium pyruvate, glutamine, streptomycin and penicillin) at 37° C. For mRNA analysis, ILC2s were stimulated overnight with recombinant mouse Neuromedin U 23 peptide (NmU23, 100 ng/mL; Phoenix pharmaceuticals). Both NmU23-stimulated and control ILC2s were cultured in the presence of IL-2 and IL-7 (10 ng/mL; Peprotech). ILC2s were lysed using RLT buffer (Qiagen). For cytokine protein analysis, ILC2s were incubated exclusively with brefeldin A (eBioscience) for 12 hours prior to intracellular staining. For in vivo experiments, B6 mice were injected intraperitoneal with NmU23 peptide (2 g/day) during Nippostrongylus brasiliensis infection or with a single dose of NmU23 (20 μg) and analyzed after 8 hours. Control mice were treated with PBS alone.
Intracellular staining was performed using IC fixation/permeabilization kit (eBioscience). Flow cytometry analysis and cell sorting were performed using BD LSRFORTESSA and BD FACSAria flow cytometers (BD Biosciences). Data analysis was done using FlowJo software (Tristar). Sorted populations were >95% pure. […]

Substance: recombinant mouse Neuromedin U 23 peptide (FKAEYQSPSVGQSKGYFLFRPRN; listed as Mus musculus) [NmU23, NMUR1 agonist neuropeptide, Phoenix pharmaceuticals]
- ILC2 proliferation as measured by Ki67, in vivo (intestine ILC2): increased ILC2 proliferation
- T helper cell-derived type 2 cytokines after in vivo administration (ILC2s): unperturbed
- type 2 cytokine production from ILC2s after in vivo administration (ILC2s): immediate and selective type 2 cytokine production
